Measured values reported in the NIST ThermoML archive (doi:10.1016/j.jct.2016.03.028).

Tests used:
[1] = refractive index (Na D-line) (dimensionless); settings: 100 kPa, Liquid, Standard Abbe refractometry
[2] = Liquid; for speed of sound: 100 kPa, Frequency=3 MHz, Sing-around technique in a fixed-path interferometer; for mass density: 101.3 kPa, Vibrating tube method
[3] = xn = mol fraction of the nth substance listed; settings: Liquid, x1 = 1; for speed of sound: 100 kPa, Frequency=3 MHz, Sing-around technique in a fixed-path interferometer; for mass density: 101.3 kPa, Vibrating tube method
[4] = refractive index (Na D-line) (dimensionless); xn = mol fraction of the nth substance listed; settings: 100 kPa, Liquid, Standard Abbe refractometry, x1 = 1

CCOS(=O)(=O)[O-].CCn1cc[n+](C)c1 [1-ethyl-3-methylimidazolium ethyl sulfate]
Settings	mass density, [2] [kg/m3]	refractive index, [1]	speed of sound, [2] [m/s]
298.15 K	1236.38	1.47907	1680.8
308.15 K	1229.49	1.47645	1656.4
318.15 K	1222.78	1.47374	1632.4
328.15 K	1216.16	1.47112	1608.9

CCOS(=O)(=O)[O-].CCn1cc[n+](C)c1 [1-ethyl-3-methylimidazolium ethyl sulfate] + CCCOCCO
Settings	mass density, [3] [kg/m3]	refractive index, [4]	speed of sound, [3] [m/s]
298.15 K	1236.38	1.47907	1680.8
308.15 K	1229.49	1.47645	1656.4
318.15 K	1222.78	1.47374	1632.4
328.15 K	1216.16	1.47112	1608.9

CCCOCCO [2-propoxyethanol]
Settings	mass density, [2] [kg/m3]	refractive index, [1]	speed of sound, [2] [m/s]
298.15 K	908.31	1.41255	1299.9
308.15 K	899.5	1.40814	1265
318.15 K	890.56	1.40355	1230.1
328.15 K	881.49	1.39908	1195.8
